Measurements: ChEMBL document CHEMBL5352429, “Designed symmetrical β-hairpin peptides for treating multidrug-resistant salmonella typhimurium infections” (Eur J Med Chem, 2022)
In brackets after ≈: the same amount, converted by molar mass. Activity calls are given as the source filed them. No cut-off for these calls is given here. Peptide text beside a SMILES is read from it.

Legend:
[1] = tested on: Staphylococcus epidermidis; assay: Antibacterial activity against methicillin-resistant Staphylococcus epidermidis ATCC 12228 incubated overnight by standard microtiter dilution method; format: functional
Escherichia coli = assay: Antibacterial activity against Escherichia coli O157:H7 CICC 21530 incubated overnight by standard microtiter dilution method; format: functional
Staphylococcus aureus [2] = assay: Antibacterial activity against Staphylococcus aureus ATCC 29213 incubated overnight by standard microtiter dilution method; format: functional
RAW264.7 [3] = assay: Inhibition of LPS-stimulated IL-8 production in mouse RAW264.7 cells at 1 to 128 ug/ml incubated for 24 hrs by ELISA analysis; format: functional, cell-based; conditions: dose 1-128 µg/ml
[4] = tested on: Salmonella enterica subsp. enterica serovar Paratyphi B; assay: Antibacterial activity against Salmonella paratyphi B CICC 21495 incubated overnight by standard microtiter dilution method; format: functional
Salmonella typhimurium [5] = assay: Antibacterial activity against Salmonella typhimurium DT104 ATCC 700408 incubated overnight by standard microtiter dilution method; format: functional, Salmonella enterica subsp. enterica serovar Typhimurium; conditions: Salmonella enterica
Salmonella paratyphi = assay: Antibacterial activity against Salmonella paratyphi A CICC 21501 incubated overnight by standard microtiter dilution method; format: functional, Salmonella enterica subsp. enterica serovar Paratyphi A; conditions: Salmonella enterica
RAW264.7 [6] = assay: Inhibition of LPS-stimulated TNF-alpha production in mouse RAW264.7 cells at 1 to 128 ug/ml incubated for 24 hrs by ELISA analysis; format: functional, cell-based; conditions: dose 1-128 µg/ml
RAW264.7 [7] = assay: Inhibition of LPS-stimulated NO production in mouse RAW264.7 cells incubated for 24 hrs by Griess reagent based analysis; format: functional, cell-based; conditions: dose 1-128 µg/ml
Salmonella typhimurium [8] = assay: Antibacterial activity against Salmonella typhimurium CICC 21913 incubated overnight by standard microtiter dilution method; format: functional, Salmonella enterica subsp. enterica serovar Typhimurium; conditions: Salmonella enterica
[9] = Antibacterial activity against Salmonella enterica subsp. enterica serovar Choleraesuis CICC 21493 incubated overnight by standard microtiter dilution method; format: functional
[10] = Antibacterial activity against Salmonella blockley CICC 21489 incubated overnight by standard microtiter dilution method; format: functional, Salmonella enterica subsp. enterica serovar Blockley; conditions: Salmonella enterica
[11] = Antibacterial activity against Salmonella wandsworth CICC 21504 incubated overnight by standard microtiter dilution method; format: functional, Salmonella enterica subsp. enterica serovar Wandsworth; conditions: Salmonella enterica
Salmonella typhimurium [12] = assay: Antibacterial activity against Salmonella typhimurium DT104 in the presence of CaCl2 by MH broth based assay; format: functional, Salmonella enterica subsp. enterica serovar Typhimurium; conditions: Salmonella enterica
[13] = Antibacterial activity against Salmonella paratyphi C CICC 21512 incubated overnight by standard microtiter dilution method; format: functional, Salmonella enterica subsp. enterica serovar Paratyphi C; conditions: Salmonella enterica
Salmonella typhimurium [14] = assay: Antibacterial activity against Salmonella typhimurium DT104 in the presence of NH4Cl by MH broth based assay; format: functional, Salmonella enterica subsp. enterica serovar Typhimurium; conditions: Salmonella enterica
Salmonella typhimurium [15] = assay: Antibacterial activity against Salmonella typhimurium DT104 in the presence 50% inactivated mouse serum by MH broth based assay; format: functional, Salmonella enterica subsp. enterica serovar Typhimurium; conditions: Salmonella enterica
Salmonella typhimurium [16] = assay: Antibacterial activity against Salmonella typhimurium DT104 in the presence of KCl by MH broth based assay; format: functional, Salmonella enterica subsp. enterica serovar Typhimurium; conditions: Salmonella enterica
[17] = Antibacterial activity against Salmonella enterica subsp. enterica serovar Choleraesuis ATCC 13312 incubated overnight by standard microtiter dilution method; format: functional
Salmonella enteritidis = assay: Antibacterial activity against Salmonella enteritidis CICC 21527 incubated overnight by standard microtiter dilution method; format: functional, Salmonella enterica subsp. enterica serovar Enteritidis; conditions: Salmonella enterica
Salmonella typhimurium [18] = assay: Antibacterial activity against Salmonella typhimurium CICC 21483 incubated overnight by standard microtiter dilution method; format: functional, Salmonella enterica subsp. enterica serovar Typhimurium; conditions: Salmonella enterica
Salmonella typhimurium [19] = assay: Antibacterial activity against Salmonella typhimurium DT104 in the presence of NaCl by MH broth based assay; format: functional, Salmonella enterica subsp. enterica serovar Typhimurium; conditions: Salmonella enterica
[20] = Antibacterial activity against Salmonella dublin CICC 21497 incubated overnight by standard microtiter dilution method; format: functional, Salmonella enterica subsp. enterica serovar Dublin; conditions: Salmonella enterica
Erythrocyte = assay: Hemolytic activity in human Red blood cells assessed as hemolysis incubated for 1 hrs by absorbance based microplate reader analysis; format: toxicity, cell-based
Staphylococcus aureus [21] = assay: Antibacterial activity against methicillin-resistant Staphylococcus aureus ATCC 43300 incubated overnight by standard microtiter dilution method; format: functional
RAW264.7 [22] = assay: Inhibition of LPS-stimulated IL-1beta production in mouse RAW264.7 cells at 1 to 128 ug/ml incubated for 24 hrs by ELISA analysis; format: functional, cell-based; conditions: dose 1-128 µg/ml
Salmonella typhimurium [23] = assay: Antibacterial activity against Salmonella typhimurium DT104 in the presence 25% inactivated mouse serum by MH broth based assay; format: functional, Salmonella enterica subsp. enterica serovar Typhimurium; conditions: Salmonella enterica
Candida albicans = assay: Antifungal activity against Candida albicans ATCC 10231 incubated overnight by standard microtiter dilution method; format: functional
Salmonella typhimurium [24] = assay: Antibacterial activity against Salmonella typhimurium DT104 in the presence of FeCl3 by MH broth based assay; format: functional, Salmonella enterica subsp. enterica serovar Typhimurium; conditions: Salmonella enterica
[25] = Hemolytic activity in human Red blood cells assessed as hemolysis at 128 ug/ml incubated for 1 hrs by absorbance based microplate reader analysis relative to control; format: toxicity, cell-based, Erythrocyte; conditions: red blood cells (erythrocytes), at 128 µg/mL, read-out: Activity
Enterococcus faecalis = assay: Antibacterial activity against Enterococcus faecalis ATCC 29212 incubated overnight by standard microtiter dilution method; format: functional
Lipopolysaccharide (LPS) = assay: Displacement of BODIPY-TR-cadaverine from Salmonella typhimurium LPS assessed as increase in fluorescence intensity by fluorescence spectrophotometric analysis; conditions: Salmonella enterica subsp. enterica serovar Typhimurium; dose 0.25-8 µg/ml
Salmonella typhimurium [26] = assay: Antibacterial activity against Salmonella typhimurium DT104 in the presence of MgCl2 by MH broth based assay; format: functional, Salmonella enterica subsp. enterica serovar Typhimurium; conditions: Salmonella enterica
Salmonella typhimurium [27] = assay: Antibacterial activity against Salmonella typhimurium DT104 infected in mouse RAW264.7 cells assessed as reduction in bacterial cells at 1 times of MIC measured for 180 mins by MH agar based serial dilution method; format: functional, organism-based; conditions: Salmonella enterica subsp. enterica serovar Typhimurium
Cell membrane = assay: Disruption of membrane integrity in Salmonella typhimurium DT104 assessed as increase in fluorescence intensity at 0.5 to 2 times of MIC incubated for 15 mins by PI staining based flow cytometric analysis; format: subcellular; conditions: Salmonella enterica subsp. enterica serovar Typhimurium

Row | SMILES | MIC [1] [µg/mL] | MIC (Escherichia coli) [µg/mL] | MIC (Staphylococcus aureus [2]) [µg/mL] | inhibition (RAW264.7 [3]) | MIC [4] [µg/mL] | MIC (Salmonella typhimurium [5]) [µg/mL] | MIC (Salmonella paratyphi) [µg/mL] | inhibition (RAW264.7 [6]) | MIC (Salmonella typhimurium [8]) [µg/mL] | MIC [9] [µg/mL] | MIC [10] [µg/mL] | MIC [11] [µg/mL] | MIC [13] [µg/mL] | MIC [17] [µg/mL] | MIC (Salmonella enteritidis) [µg/mL] | MIC (Salmonella typhimurium [18]) [µg/mL] | MIC [20] [µg/mL] | MIC (Staphylococcus aureus [21]) [µg/mL] | MIC (Candida albicans) [µg/mL] | MIC (Enterococcus faecalis) [µg/mL] | further results
1 | CC(C)C[C@H](NC(=O)[C@H](CCCCN)NC(=O)[C@H](CS)NC(=O)CNC(=O)[C@H](CO)NC(=O)[C@H](CCCCN)NC(=O)[C@@H](NC(=O)[C@H](CS)NC(=O)[C@H](CCCCN)NC(=O)[C@@H](N)CC(C)C)[C@@H](C)O)C(N)=O (H-LKCTKSGCKL-NH2) | > 128 | > 128 | > 128 | Active | > 128 | > 128 | > 128 | Active | > 128 | > 128 | > 128 | > 128 | > 128 | > 128 | > 128 | > 128 | > 128 | > 128 | > 128 | > 128 | inhibition (RAW264.7 [7]): Dose-Dependent Effect; MIC (Salmonella typhimurium [12]): > 128 µg/mL; MIC (Salmonella typhimurium [14]): > 128 µg/mL; MIC (Salmonella typhimurium [15]): > 128 µg/mL; MIC (Salmonella typhimurium [16]): > 128 µg/mL; MIC (Salmonella typhimurium [19]): > 128 µg/mL; MHC (Erythrocyte): > 128 µg/mL; inhibition (RAW264.7 [22]): Active; MIC (Salmonella typhimurium [23]): > 128 µg/mL; MIC (Salmonella typhimurium [24]): > 128 µg/mL; hemolysis at 1 h, 128 ug/ml [25]: < 10%; Activity (Lipopolysaccharide (LPS)): Dose-Dependent Effect; MIC (Salmonella typhimurium [26]): > 128 µg/mL
2 | CN[C@@H]1[C@H](O[C@H]2[C@H](O[C@H]3[C@H](O)[C@@H](O)[C@H](N=C(N)N)[C@@H](O)[C@@H]3N=C(N)N)O[C@@H](C)[C@]2(O)C=O)O[C@@H](CO)[C@H](O)[C@H]1O [STREPTOMYCIN] | 0.25 (≈ 0.43 µM) | 64 (≈ 110 µM) | 4 (≈ 6.88 µM) |  | 32 (≈ 55 µM) | 128 (≈ 220 µM) | 32 (≈ 55 µM) |  | 64 (≈ 110 µM) | 32 (≈ 55 µM) | > 128 | 2 (≈ 3.44 µM) | 64 (≈ 110 µM) | 64 (≈ 110 µM) | 16 (≈ 27.5 µM) | 32 (≈ 55 µM) | 128 (≈ 220 µM) | 8 (≈ 13.8 µM) | 128 (≈ 220 µM) | 64 (≈ 110 µM) | Activity (Salmonella typhimurium [27]): Active
3 | CC(C)[C@H](N)C(=O)N[C@@H](CCCCN)C(=O)N[C@H](C(=O)N[C@@H](CCCCN)C(=O)N[C@@H](CS)C(=O)N[C@H](C(=O)N[C@@H](CCCCN)C(=O)N[C@@H](CO)C(=O)NCC(=O)N[C@@H](CS)C(=O)N[C@@H](CCCCN)C(=O)N[C@H](C(=O)N[C@@H](CCCCN)C(=O)N[C@H](C(N)=O)C(C)C)C(C)C)[C@@H](C)O)C(C)C (H-VKVKCTKSGCKVKV-NH2) | > 128 | 64 (≈ 42.5 µM) | > 128 | Active | 16 (≈ 10.6 µM) | > 128 | > 128 | Active | > 128 | > 128 | > 128 | > 128 | 64 (≈ 42.5 µM) | 4 (≈ 2.66 µM) | > 128 | > 128 | > 128 | > 128 | 16 (≈ 10.6 µM) | > 128 | inhibition (RAW264.7 [7]): Dose-Dependent Effect; MIC (Salmonella typhimurium [12]): > 128 µg/mL; MIC (Salmonella typhimurium [14]): > 128 µg/mL; MIC (Salmonella typhimurium [15]): > 128 µg/mL; MIC (Salmonella typhimurium [16]): > 128 µg/mL; MIC (Salmonella typhimurium [19]): > 128 µg/mL; MHC (Erythrocyte): > 128 µg/mL; Activity (Cell membrane): Active; inhibition (RAW264.7 [22]): Active; MIC (Salmonella typhimurium [23]): > 128 µg/mL; MIC (Salmonella typhimurium [24]): > 128 µg/mL; hemolysis at 1 h, 128 ug/ml [25]: < 10%; Activity (Lipopolysaccharide (LPS)): Dose-Dependent Effect; MIC (Salmonella typhimurium [26]): > 128 µg/mL
